Test results taken from article PMC2853259 (Analytical biochemistry, 2010).

Target: Paraoxonase 1 (PON1) (Homo sapiens, UniProt P27169)
Assay type: cell-based

Paraoxonase 1 (PON1), sequence (P27169 2-355): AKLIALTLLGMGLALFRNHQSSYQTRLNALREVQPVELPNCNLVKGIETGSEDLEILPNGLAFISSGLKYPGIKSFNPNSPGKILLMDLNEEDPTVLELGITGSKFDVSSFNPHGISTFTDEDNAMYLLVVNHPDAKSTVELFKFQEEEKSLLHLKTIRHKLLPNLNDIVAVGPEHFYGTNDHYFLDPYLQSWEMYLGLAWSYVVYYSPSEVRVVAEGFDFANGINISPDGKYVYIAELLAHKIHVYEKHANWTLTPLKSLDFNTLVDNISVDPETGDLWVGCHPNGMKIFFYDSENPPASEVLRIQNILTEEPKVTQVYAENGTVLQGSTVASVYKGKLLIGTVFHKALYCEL

Work on `Oc1ccc2ccccc2n1` [2HQ, 2-hydroxyquinoline] yielded an IC50 of 5.4 ± 3.6 µM.
